Experimental data as given in US11377441B2, “Covalent inhibitors of KRAS” (Araxes Pharma LLC, priority 2017, dated 2022).

The compounds below were run against T1, KRAS G12C 1-169, his-tagged protein, GDP-loaded (Homo sapiens, UniProt P01116, G12C) (assay: Biochemical assay: covalent modification of KRAS G12C measured by mass spectrometry (RapidFire/TOF or Q-Exactive)). Conditions: covalent binding to (modification of) KRAS G12C after a ten minute incubation period.
T1 construct: KRAS G12C 1-169, his-tagged protein, GDP-loaded
Format: binding
Protocol: Test compounds were prepared as 10 mM stock solutions in DMSO (Fisher cat #BP-231-100). KRAS G12C 1-169, his-tagged protein, GDP-loaded is diluted to 2 μM or 0.5 μM in buffer (20 mM Hepes, 150 mM NaCl, 1 mM MgCl2). Compounds were tested for activity as follows:
Compounds were diluted to 50× final test concentration in DMSO in 96-well storage plates. Compound stock solutions were vortexed before use and observed carefully for any sign of precipitation. Dilutions are as follow: • For 100 μM final compound concentration, compounds were diluted to 5000 μM (5 μL 10 mM compound stock+5 μL DMSO and mixed well by pipetting. • For 30 μM final compound concentration, compounds were diluted to 1500 μM (3 μL 10 mM compound stock+17 μL DMSO) and mixed well by pipetting. • For 10 μM final compound concentration, compounds were diluted to 500 μM (2 μL 10 mM compound stock+38 μL DMSO) and mixed well by pipetting. 49 μL of the stock protein solution was added to each well of a 96-well PCR plate (Fisher cat #1423027). 1 μL of the diluted 50× compounds were added to appropriate wells in the PCR plate using 12-channel pipettor. Reactions were mixed carefully and thoroughly by pipetting up/down with a 200 μL multi-channel pipettor. The plate was sealed well with aluminum plate seal, and stored in drawer at room temperature for 10 minutes, 30 minutes, 2 hours or 24 hours. 5 μL of 2% formic acid (Fisher cat #A117) in de-ionized H2O was then added to each well followed by mixing with a pipette. The plate was then resealed with aluminum seal and stored on dry ice until analyzed as described below.
The above described assays were analyzed by mass spectrometry according to one of the following two procedures:
The MS instrument was set to positive polarity, 2 GHz resolution, and low mass (1700) mode and allowed to equilibrate for 30 minutes. The instrument was then calibrated, switched to acquisition mode and the appropriate method loaded.
After another 30 minute equilibration time, a blank batch (i.e., buffer) was run to ensure equipment is operating properly. The samples were thawed at 37° C. for 10 minutes, briefly centrifuged, and transfer to the bench top. Wells A1 and H12 were spiked with 1 μL 500 μM internal standard peptide, and the plates centrifuged at 2000×g for 5 minutes. The method was then run and masses of each individual well recorded.
The masses (for which integration data is desired) for each well were pasted into the platemap and exported from the analysis. Masses for the internal standards were exported as well. The data at 50 ppm was extracted for the +19 charge state, and identity of well A1 was assigned using the internal standard spike and integrated. Peak data was exported as a TOF list and the above steps were repeated individually, for the +20, 21, 22, 23, 24, and 25 charge states.
The masses and peak intensities of KRAS G12C protein species were measured using a Dionex RSLCnano system (Thermo Scientific) connected to a Q Exactive Plus mass spectrometer (Thermo Scientific).
[…] of sample was each loaded onto a Aeris™ 3.6 μm WIDEPORE C4 200 Å, LC Column 50×2.1 mm column maintained at 40° C. at a flow rate of 600 μL/min with 20% Solvent A (0.1% formic acid in H2O) and […] (0.1% formic acid in acetonitrile). The liquid chromatography conditions were 20% solvent B for 1 minute, 20% to 60% solvent B for 1.5 minutes, 60% to 90% solvent for 0.5 minute, 90% solvent B for 0.2 minute, 90% to 20% solvent B for 0.2 minute, and then equilibrated for 1.6 minutes before the following sample injection. The flow rate was maintained at 600 μL/min throughout the sample analysis.
The mass spectrometer was operated in profile mode at a resolution of 17500, 5 microscans, using 50 msec max injection time and an AGC target of 1×10^6, and a full mass range from 800-1850 m/z was recorded. The HCD trapping gas was optimized for maximum sensitivity for intact proteins. […]
With `C=CC(=O)N1C[C@H](C)N(c2nc(N3CC(N(C)C)C3)nc3c(F)c(-c4c(C)ccc5nn[nH]c45)c(Cl)cc23)C[C@H]1C` [Compound 86, 1-((2R,5S)-4-(6-chloro-2-(3-(dimethylamino)azetidin-1-yl)-8-fluoro-7-(6-methyl-1H-benzo[d][1,2,3]triazol-7-yl)quinazolin-4-yl)-2,5-dimethylpiperazin-1-yl)prop-2-en-1-one] the Binding % was “+ (+ indicates binding activity greater than 0% and up to 50%)”.
`C=CC(=O)N1C[C@H](C)N(c2nc(OC[C@@H]3CCCN3C(C)C)nc3c(F)c(-c4c(C)ccc5cnn(C)c45)c(Cl)cc23)C[C@H]1C` [Compound 238, 1-((2R,5S)-4-(6-chloro-7-(1,6-dimethyl-1H-indazol-7-yl)-8-fluoro-2-(((S)-1-isopropylpyrrolidin-2-yl)methoxy)quinazolin-4-yl)-2,5-dimethylpiperazin-1-yl)prop-2-en-1-one] was tested, and the Binding % was “++ (++ indicates binding activity from 50 to 80%)”.
For `C=CC(=O)N1CCN(c2nc(OC[C@@H]3CCCN3C)nc3c(F)c(-c4c(C)ccc5[nH]ncc45)c(Cl)cc23)CC1CC#N` (stereo partly drawn) [Compound 271, 2-(1-acryloyl-4-(6-chloro-8-fluoro-7-(5-methyl-1H-indazol-4-yl)-2-(((S)-1-methylpyrrolidin-2-yl)methoxy)quinazolin-4-yl)piperazin-2-yl)acetonitrile], the Binding % was “+++ (+++ indicates binding activity greater than 80%)”.
With `C=CC(=O)N1C[C@H](C)N(c2nc(Nc3cnn(C)c3)nc3c(F)c(-c4c(C)ccc5[nH]nc(N)c45)c(Cl)cc23)C[C@H]1C` [Compound 68, 1-((2R,5S)-4-(7-(3-amino-5-methyl-1H-indazol-4-yl)-6-chloro-8-fluoro-2-(1-methyl-1H-pyrazol-4-ylamino)quinazolin-4-yl)-2,5-dimethylpiperazin-1-yl)prop-2-en-1-one] the Binding % was “+++ (+++ indicates binding activity greater than 80%)”.
In the case of `C=CC(=O)N1C[C@H](C)N(c2nc(OC[C@@H]3COCCN3C)nc3c(F)c(-c4c(C)ccc5[nH]nc(C6CC6)c45)c(Cl)cc23)C[C@H]1C` [Compound 183, 1-((2R,5S)-4-(6-chloro-7-(3-cyclopropyl-5-methyl-1H-indazol-4-yl)-8-fluoro-2-(((S)-4-methylmorpholin-3-yl)methoxy)quinazolin-4-yl)-2,5-dimethylpiperazin-1-yl)prop-2-en-1-one], the Binding % is reported as “+++ (+++ indicates binding activity greater than 80%)”.
With `C=CC(=O)N1C[C@H](C)N(c2nc(N3CC(N(C)C)C3)nc3c(F)c(-c4c(C)ccc5[nH]c(=O)[nH]c45)c(Cl)cc23)C[C@H]1C` [Compound 82, 4-(4-((2S,5R)-4-acryloyl-2,5-dimethylpiperazin-1-yl)-6-chloro-2-(3-(dimethylamino)azetidin-1-yl)-8-fluoroquinazolin-7-yl)-5-methyl-1H-benzo[d]imidazol-2(3H)-one] the Binding % was “+++ (+++ indicates binding activity greater than 80%)”.
`C=CC(=O)N1C[C@H](C)N(c2nc(N3CC(N(C)C)C3)nc3c(F)c(-c4cccc5ncccc45)c(Cl)cc23)C[C@H]1C` [Compound 44, 1-((2R,5S)-4-(6-chloro-2-(3-(dimethylamino)azetidin-1-yl)-8-fluoro-7-(quinolin-5-yl)quinazolin-4-yl)-2,5-dimethylpiperazin-1-yl)prop-2-en-1-one] was tested, and the Binding % was “++ (++ indicates binding activity from 50 to 80%)”.
For `C=CC(=O)N1C[C@H](C)N(c2nc(C#CCOC)nc3c(F)c(-c4c(C)ccc5cnn(C)c45)c(Cl)cc23)C[C@H]1C` [Compound 258, 1-((2R,5S)-4-(6-chloro-7-(1,6-dimethyl-1H-indazol-7-yl)-8-fluoro-2-(3-methoxyprop-1-ynyl)quinazolin-4-yl)-2,5-dimethylpiperazin-1-yl)prop-2-en-1-one], the Binding % was “+++ (+++ indicates binding activity greater than 80%)”.
For `C=CC(=O)N1C[C@H](C)N(c2nc(OCC(C)(C)N(C)C)nc3c(F)c(-c4c(C)ccc5[nH]nc(C)c45)c(Cl)cc23)C[C@H]1C` [Compound 226, 1-((2R,5S)-4-(6-chloro-7-(3,5-dimethyl-1H-indazol-4-yl)-2-(2-(dimethylamino)-2-methylpropoxy)-8-fluoroquinazolin-4-yl)-2,5-dimethylpiperazin-1-yl)prop-2-en-1-one], the Binding % was “++ (++ indicates binding activity from 50 to 80%)”.
In the case of `C=CC(=O)N1C[C@H](C)N(c2nc(NC3CCN(C4CC4)CC3)nc3c(F)c(-c4c(C)ccc5[nH]nc(C6CC6)c45)c(Cl)cc23)C[C@H]1C` (atropisomer, axis not shown) [Compound 111, 1-((2R,5S)-4-((R)-6-chloro-7-(3-cyclopropyl-5-methyl-1H-indazol-4-yl)-2-(1-cyclopropylpiperidin-4-ylamino)-8-fluoroquinazolin-4-yl)-2,5-dimethylpiperazin-1-yl)prop-2-en-1-one], the Binding % is reported as “++ (++ indicates binding activity from 50 to 80%)”.
For `C=CC(=O)N1C[C@H](C)N(c2nc(N3CC(N(C)C)C3)nc3c(F)c(-c4c(C)ccc5onc(N)c45)c(Cl)cc23)C[C@H]1C` (atropisomer, axis not shown) [Compound 96, 1-((2R,5S)-4-((S)-7-(3-amino-5-methylbenzo[d]isoxazol-4-yl)-6-chloro-2-(3-(dimethylamino)azetidin-1-yl)-8-fluoroquinazolin-4-yl)-2,5-dimethylpiperazin-1-yl)prop-2-en-1-one], the Binding % was “+ (+ indicates binding activity greater than 0% and up to 50%)”.
With `C=CC(=O)N1C[C@H](C)N(c2nc(OC[C@@H]3CCN(C)C3)nc3c(F)c(-c4c(C)ccc5[nH]nc(C6CC6)c45)c(Cl)cc23)C[C@H]1C` [Compound 177, 1-((2R,5S)-4-(6-chloro-7-(3-cyclopropyl-5-methyl-1H-indazol-4-yl)-8-fluoro-2-(((R)-1-methylpyrrolidin-3-yl)methoxy)quinazolin-4-yl)-2,5-dimethylpiperazin-1-yl)prop-2-en-1-one] the Binding % was “+++ (+++ indicates binding activity greater than 80%)”.
`C=CC(=O)N1C[C@H](C)N(c2nc(N3CC(N(C)C)C3)nc3c(F)c(-c4c(C)ccc5[nH]nc(NC6CCC6)c45)c(Cl)cc23)C[C@H]1C` [Compound 36, 1-((2R,5S)-4-(6-chloro-7-(3-(cyclobutylamino)-5-methyl-1H-indazol-4-yl)-2-(3-(dimethylamino)azetidin-1-yl)-8-fluoroquinazolin-4-yl)-2,5-dimethylpiperazin-1-yl)prop-2-en-1-one] was tested, and the Binding % was “+ (+ indicates binding activity greater than 0% and up to 50%)”.
`C=CC(=O)N1C[C@H](C)N(c2nc(OC3CCOC3)nc3c(F)c(-c4c(C)ccc5cnn(C)c45)c(Cl)cc23)C[C@H]1C` (stereo partly drawn) [Compound 216, 1-((2R,5S)-4-(6-chloro-7-(1,6-dimethyl-1H-indazol-7-yl)-8-fluoro-2-(tetrahydrofuran-3-yloxy)quinazolin-4-yl)-2,5-dimethylpiperazin-1-yl)prop-2-en-1-one] was tested, and the Binding % was “++ (++ indicates binding activity from 50 to 80%)”.
With `C=CC(=O)N1C[C@H](C)N(c2nc(Nc3cnn(C)c3)nc3c(F)c(-c4c(C)ccc5onc(N)c45)c(Cl)cc23)C[C@H]1C` [Compound 74, 1-((2R,5S)-4-(7-(3-amino-5-methylbenzo[d]osoxa-zol-4-yl)-6-chloro-8-fluoro-2-(1-methyl-1H-pyrazol-4-ylamino)quinazolin-4-yl)-2,5-dimethylpiperazin-1-yl)prop-2-en-1-one] the Binding % was “+ (+ indicates binding activity greater than 0% and up to 50%)”.
